Source: US7405303B2, “Substituted quinoline compounds for use as selective estrogen receptor modulator” (SmithKline Beecham Corporation, priority 2004, dated 2008)
Where two headings read alike, the source gives them in different places.

How the values were obtained:
[1] = target: T1, GST-hERα (ligand binding domain) (Homo sapiens, UniProt P03372); experiment: SPA competition binding assay, ERα; settings: for Avg. ER α pKi: SPA competition binding vs 1 nM [3H]estradiol, apparent Ki, n = 2; for Ki: read-out: Avg. ER α pKi (converted)
T1 construct: made in house; host or cells: E. coli BL21 (DE3)pLYS S
T1 sequence (P03372 311-547 limits assumed): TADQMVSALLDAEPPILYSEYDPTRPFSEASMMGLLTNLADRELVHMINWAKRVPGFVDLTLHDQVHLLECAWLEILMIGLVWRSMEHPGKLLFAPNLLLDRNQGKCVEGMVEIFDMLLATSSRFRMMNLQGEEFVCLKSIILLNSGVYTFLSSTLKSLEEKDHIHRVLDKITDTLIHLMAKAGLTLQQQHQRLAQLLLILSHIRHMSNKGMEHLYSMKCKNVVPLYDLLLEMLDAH
Method: (§1) The ligand binding domain of both ERα and ERβ were sub-cloned into pGEX-2T vector which had been modified to contain KpnI and BamHI restriction sites in the multiple cloning region. GST-hERα and GST-hERβ proteins were made by transforming BL21 (DE3)pLYS S competent cells with the appropriate expression plasmid. […] The cells were collected by centrifugation and resuspended in lysis buffer (50 mM Tris pH 7.9; 250 mM KCl; 1% Triton X-100; 10 mM DTT; 1 mM PMSF). The lysate was then placed on dry ice until completely frozen The frozen lysate was thawed and centrifuged 20 min at 4° C. at 80K rpm in a TLA 100.2 rotor in a Beckman TL-100 ultracentrifuge. The supernatant was retained and glycerol was added to a final concentration of 10%. The protein content of the supernatant was quantitated using the BioRad Protein Assay Reagent. The protein was then stored at −80° C. until used in the binding assay.
(§2) Polylysine coated Yttrium Silicate SPA beads (Amersham #RPNQ 0010) are resuspended in assay buffer [10 mM potassium phosphate buffer pH 7.0 containing 2 mM EDTA, 50 mM NaCl, 1 mM DTT, 2 mM CHAPS, 10% glycerol] to a concentration of 1 g/60 ml. 30 ul (0.5 mg) of the SPA beads are then added to each well of a Packard OptiPlate (Packard 6005190, Packard Instruments, Meriden, Conn.). […] [2,4,6,7,16,17-3H(N)]-Estradiol is added as a 30 ul aliquot to give a final assay concentration of 1 nM. […] The plates are shaken vigorously for two hours then counted on a Packard TopCount using the protocol for counting tritium yttrium silicate SPA beads. Data analysis was done by standard methods. % Bound was calculated for each concentration of each test compound using the equation % Bound=100*((Test−NS)/(T−NS)). % Bound was plotted vs concentration and curve fitting was accomplished using non-linear regression.

[2] = target: T2, GST-hERβ (ligand binding domain) (Homo sapiens, UniProt Q92731); experiment: SPA competition binding assay, ERβ; settings: for Avg. ER β pKi: SPA competition binding vs 1 nM [3H]estradiol, apparent Ki, n = 2
T2 construct: made in house; host or cells: E. coli BL21 (DE3)pLYS S
T2 sequence (Q92731 264-498 limits assumed): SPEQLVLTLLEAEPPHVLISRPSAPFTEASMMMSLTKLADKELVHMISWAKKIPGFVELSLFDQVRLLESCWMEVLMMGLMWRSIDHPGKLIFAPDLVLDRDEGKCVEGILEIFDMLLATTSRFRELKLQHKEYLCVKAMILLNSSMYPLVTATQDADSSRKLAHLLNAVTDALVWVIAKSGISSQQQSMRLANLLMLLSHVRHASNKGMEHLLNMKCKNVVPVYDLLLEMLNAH
Method: as §1, with “The lysate was then placed on dry ice until completely frozen The frozen lysate was thawed and centrifuged 20 min at 4° C. at 80K rpm in a TLA 100.2 rotor in a Beckman TL-100 ultracentrifuge.” left out
as §2, with “ml.” for “ml. 30 ul (0.5 mg) of the SPA beads are then added to each well of a Packard OptiPlate (Packard 6005190, Packard Instruments, Meriden, Conn.).”

Compound | Avg. ER α pKi [1] | Avg. ER β pKi [2] | Ki [1] | Ki [2] | Ki ([2]; read-out: Avg. ER β pKi (converted))
4-[(7-Hydroxy-2-ethyl-3-(3-trifluoromethylphenyl)-4-quinolinyl)oxyphenyl]-2-propenoic acid [Example 8] | 7.05 | 6.57 |  |  | 
4-[(7-Hydroxy-2-ethyl-3-(3-trifluoromethylphenyl]-4-quinolinyl)oxyphenyl]-2-propeno-N-isopropylamide [Example 7] | 7.51 | 7.26 |  |  | 
4-[(7-Hydroxy-2-ethyl-3-phenyl-4-quinolinyl)oxyphenyl]-2-propeno-N,N-dimethylamide [Example 4] | 7.95 | 7.74 |  |  | 
4-[(7-Hydroxy-2-ethyl-3-phenyl-4-quinolinyl)oxyphenyl]-2-propeno-N-isopropylamide [Example 3] | 8.01 | 7.76 |  |  | 
4-[(7-Hydroxy-2-ethyl-3-phenyl-4-quinolinyl)oxyphenyl]-2-propeno-N-piperidineamide [Example 5] | 7.55 | 7.64 |  |  | 
4-[(7-Hydroxy-2-ethyl-3-phenyl-4-quinolinyl)oxyphenyl]-2-propenonitrile [Example 6] | 7.59 | 7.50 |  |  | 
4-[(7-Hydroxy-2-phenyl-3-phenyl-4-quinolinyl)oxyphenyl]-2-propenoic acid [Example 9] | 5.53 | 6.17 |  |  | 
CCc1nc2cc(O)ccc2c(Oc2ccc(/C=C/C(N)=O)cc2)c1-c1ccccc1 [Example 2, 4-[(7-Hydroxy-2-ethyl-3-phenyl-4-quinolinyl)oxyphenyl]-2-propenoamide] |  |  | 0.0148 µM | 0.0282 µM | 
CCc1nc2cc(O)ccc2c(Oc2cccc(/C=C/C(=O)O)c2)c1-c1ccccc1 [Example 10, 3-[(7-Hydroxy-2-ethyl-3-phenyl-4-quinolinyl)oxyphenyl]-2-propenoic acid] |  |  | 1.55 µM |  | 
CCc1nc2cc(O)ccc2c(Sc2ccc(/C=C/C(N)=O)cc2)c1-c1ccccc1 [Example 11, 4-[(7-Hydroxy-2-ethyl-3-phenyl-4-quinolinyl)thiophenyl]-2-propenoamide] |  |  | 3.16 µM |  | 1.82 µM
